Assay results taken from US11739074B2, “Ras inhibitors” (Revolution Medicines, Inc., priority 2019, dated 2023).
Values joined by “and” are separate entries in the source; they are usually repeats but may differ in a detail not shown here. Equal values may be shown once. Read-outs that look alike come from different tables or passages of the source.

How the values were obtained:
[1] = biological target: KRAS G12C (Homo sapiens, UniProt P01116+P62937, G12C); experiment: Ras-Raf disruption/FRET/MOA assay, KRAS G12C; assay type: biochemical; conditions: disruption of BRAF RBD binding, with Cyclophilin A; read-out: KRAS G12C FRET IC50
Text: (§1) Disruption of B-Raf Ras-Binding Domain (BRAF^RBD) Interaction with K-Ras by Compounds of the Invention (Also Called a FRET Assay or an MOA Assay)
(§2) Note—The following protocol describes a procedure for monitoring disruption of K-Ras G12C (GMP-PNP) binding to BRAF^RBD by a compound of the invention. This protocol may also be executed substituting other Ras proteins or nucleotides, such as K-Ras G12D and K-Ras G13D.
(§3) The purpose of this biochemical assay was to measure the ability of test compounds to facilitate ternary complex formation between a nucleotide-loaded K-Ras isoform and Cyclophilin A; the resulting ternary complex disrupts binding to a BRAF^RBD construct, inhibiting K-Ras signaling through a RAF effector.
(§4) In assay buffer containing 25 mM HEPES pH 7.3, 0.002% Tween20, 0.1% BSA, 100 mM NaCl and 5 mM MgCl2, tagless Cyclophilin A, His6-K-Ras-GMPPNP, and GST-BRAF^RBD were combined in a 384-well assay plate at final concentrations of 25 μM, 12.5 nM, and 50 nM, respectively. Compound was present in plate wells as a 10-point 3-fold dilution series starting at a final concentration of 30 μM. After incubation at 25° C. for 3 hours, a mixture of anti-His Eu-W1024 and anti-GST allophycocyanin was then added to assay sample wells at final concentrations of 10 nM and 50 nM, respectively, and the reaction incubated for an additional 1.5 hours. […] Compounds that facilitate disruption of a K-Ras:RAF complex were identified as those eliciting a decrease in the TR-FRET ratio relative to DMSO control wells.

[2] = tested on: AsPC-1 (K-Ras G12D); experiment: Potency assay: pERK in AsPC-1 cells; assay type: cell-based; conditions: Homo sapiens
[3] = tested on: AsPC-1 (K-Ras G12D); experiment: CellTiter-Glo cell viability assay, AsPC-1; assay type: cell-based; conditions: Homo sapiens, ASPC1, 120 h
Method in brief: (§5)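 Luminescent viability readout on day 5, plates first brought to room temperature for ~30 min; compounds added straight to plated RAS-mutant cells. Values expressed as percent of mean DMSO signal, curves fitted with a four-parameter logistic model.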

[4] = tested on: NCI-H358 (K-Ras G12C); experiment: CellTiter-Glo cell viability assay, H358; assay type: cell-based; conditions: Homo sapiens, NCI-H358, 120 h
Method in brief: as §5

[5] = biological target: KRAS G12D (Homo sapiens, UniProt P01116+P62937, G12D); experiment: Ras-Raf disruption/FRET/MOA assay, KRAS G12D; assay type: biochemical; conditions: disruption of BRAF RBD binding, with Cyclophilin A; read-out: KRAS G12D FRET IC50
Text: as §1, §2, §3, §4

[6] = biological target: KRAS G12V (Homo sapiens, UniProt P01116+P62937, G12V); experiment: Ras-Raf disruption/FRET/MOA assay, KRAS G12V; assay type: biochemical
Text: as §1, §2, §3, §4

[7] = biological target: T1, NRAS G12C (Homo sapiens, UniProt P01111+P62937, G12C); experiment: Ras-Raf disruption/FRET/MOA assay, NRAS G12C; assay type: biochemical; conditions: NRAS G12C; read-out: NRAS G12C FRET data IC50
T1 construct: His6
Text: as §1, §2, §3, §4

[8] = biological target: KRAS G12S (Homo sapiens, UniProt P01116+P62937, G12S); experiment: Ras-Raf disruption/FRET/MOA assay, KRAS G12S; assay type: biochemical; conditions: disruption of BRAF RBD binding, with Cyclophilin A; read-out: KRAS G12S FRET IC50
Text: as §1, §2, §3, §4

[9] = biological target: KRAS G13D (Homo sapiens, UniProt P01116+P62937, G13D); experiment: Ras-Raf disruption/FRET/MOA assay, KRAS G13D; assay type: biochemical; conditions: disruption of BRAF RBD binding, with Cyclophilin A; read-out: KRAS G13D FRET IC50
Text: as §1, §2, §3, §4

[10] = biological target: KRAS WT (Homo sapiens, UniProt P01116+P62937); experiment: Ras-Raf disruption/FRET/MOA assay, KRAS WT; assay type: biochemical; conditions: disruption of BRAF RBD binding, with Cyclophilin A; read-out: KRAS WT FRET IC50
Text: as §1, §2, §3, §4

[11] = biological target: KRAS G13C (Homo sapiens, UniProt P01116+P62937, G13C); experiment: Ras-Raf disruption/FRET/MOA assay, KRAS G13C; assay type: biochemical; conditions: disruption of BRAF RBD binding, with Cyclophilin A; read-out: KRAS G13C FRET IC50
Text: as §1, §2, §3, §4

[12] = ASPC1, AsPC-1 cells, K-Ras G12D, read-out: pERK EC50 (AsPC-1 KRAS G12D)
[13] = AsPC-1, K-Ras G12D, 5-day treatment, read-out: AsPC-1 Cell Viability IC50
[14] = NCI-H358, K-Ras G12C, 5-day treatment, read-out: H358 Cell Viability IC50
[15] = disruption of BRAF RBD binding, with Cyclophilin A, read-out: KRAS G12V FRET IC50
[16] = read-out: H358 Cell Viability IC50, NCI-H358, K-Ras G12C, 5-day treatment

Chain of KRAS G12D (P01116 1-169 isoform P01116-2 G12D limits assumed): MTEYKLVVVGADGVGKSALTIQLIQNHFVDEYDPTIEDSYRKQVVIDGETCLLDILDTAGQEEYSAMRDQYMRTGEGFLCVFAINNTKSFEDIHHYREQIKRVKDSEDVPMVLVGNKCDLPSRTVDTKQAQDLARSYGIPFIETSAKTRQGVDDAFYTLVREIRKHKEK
Chain of KRAS G12D (P62937 whole entry): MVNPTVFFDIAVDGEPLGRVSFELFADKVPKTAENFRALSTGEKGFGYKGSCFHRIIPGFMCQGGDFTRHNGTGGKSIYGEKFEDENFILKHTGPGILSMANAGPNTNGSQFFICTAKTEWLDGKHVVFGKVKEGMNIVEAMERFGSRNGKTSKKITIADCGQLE
Chain of KRAS G12C (P01116 1-169 isoform P01116-2 G12C limits assumed): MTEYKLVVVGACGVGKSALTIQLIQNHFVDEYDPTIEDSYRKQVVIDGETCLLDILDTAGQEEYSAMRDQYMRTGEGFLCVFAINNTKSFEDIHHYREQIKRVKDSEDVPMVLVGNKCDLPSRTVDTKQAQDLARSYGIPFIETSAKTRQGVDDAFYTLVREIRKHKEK
Chain of KRAS G12C (P62937 whole entry, the tested form may be a part): as the sequence (P62937 whole entry) above
T1 sequence (P01111 whole entry G12C): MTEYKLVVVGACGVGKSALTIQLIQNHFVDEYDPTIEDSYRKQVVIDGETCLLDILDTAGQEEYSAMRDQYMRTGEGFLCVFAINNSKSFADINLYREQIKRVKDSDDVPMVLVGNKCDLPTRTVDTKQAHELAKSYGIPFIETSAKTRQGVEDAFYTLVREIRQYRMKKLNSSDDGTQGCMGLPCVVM
T1 sequence (P62937 whole entry): as the sequence (P62937 whole entry) above
Chain of KRAS G12V (P01116 1-169 isoform P01116-2 G12V limits assumed): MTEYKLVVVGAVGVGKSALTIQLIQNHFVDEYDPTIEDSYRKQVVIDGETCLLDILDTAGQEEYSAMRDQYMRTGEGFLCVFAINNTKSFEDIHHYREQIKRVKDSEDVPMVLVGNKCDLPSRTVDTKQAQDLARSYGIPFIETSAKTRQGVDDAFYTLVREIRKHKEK
Chain of KRAS G12V (P62937 whole entry): as the sequence (P62937 whole entry) above
Chain of KRAS G12S (P01116 1-169 isoform P01116-2 G12S limits assumed): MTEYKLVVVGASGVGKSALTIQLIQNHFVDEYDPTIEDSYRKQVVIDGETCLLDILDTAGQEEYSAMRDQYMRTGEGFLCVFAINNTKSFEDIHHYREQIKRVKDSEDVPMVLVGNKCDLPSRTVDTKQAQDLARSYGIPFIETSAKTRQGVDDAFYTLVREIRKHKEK
Chain of KRAS G12S (P62937 whole entry): as the sequence (P62937 whole entry) above
Chain of KRAS G13D (P01116 1-169 isoform P01116-2 G13D limits assumed): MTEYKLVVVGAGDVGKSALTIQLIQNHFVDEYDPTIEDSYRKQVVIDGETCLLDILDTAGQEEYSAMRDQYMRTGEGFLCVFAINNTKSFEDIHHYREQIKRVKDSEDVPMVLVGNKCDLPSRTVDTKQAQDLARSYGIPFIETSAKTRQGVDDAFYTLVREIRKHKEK
Chain of KRAS G13D (P62937 whole entry): as the sequence (P62937 whole entry) above
Chain of KRAS WT (P01116 1-169 isoform P01116-2 limits assumed): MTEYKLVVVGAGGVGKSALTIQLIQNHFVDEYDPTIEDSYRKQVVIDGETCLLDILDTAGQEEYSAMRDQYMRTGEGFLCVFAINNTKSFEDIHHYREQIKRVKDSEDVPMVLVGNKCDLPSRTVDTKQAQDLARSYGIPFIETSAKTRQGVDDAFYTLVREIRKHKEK
Chain of KRAS WT (P62937 whole entry): as the sequence (P62937 whole entry) above
Chain of KRAS G13C (P01116 1-169 isoform P01116-2 G13C limits assumed): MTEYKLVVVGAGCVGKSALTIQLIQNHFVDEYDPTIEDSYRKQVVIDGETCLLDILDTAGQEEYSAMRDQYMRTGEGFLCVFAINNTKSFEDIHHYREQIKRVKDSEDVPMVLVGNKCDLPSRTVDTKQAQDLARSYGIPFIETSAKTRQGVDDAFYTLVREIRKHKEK
Chain of KRAS G13C (P62937 whole entry): as the sequence (P62937 whole entry) above

| IC50 [3, 13] | IC50 [4, 14] | IC50 [6, 15] | Structure (SMILES) | other results |
| --- | --- | --- | --- | --- |
| 1 to 10 µM | 1 to 10 µM |  | CCn1c(-c2cnccc2COC)c2c3cc(ccc31)-c1cccc(c1)C[C@H](NC(=O)[C@H](C(C)C)N(C)C(=O)CCN=C=NCCCN1CCOCC1)C(=O)N1CCC[C@H](N1)C(=O)OCC(C)(C)C2 [17 A and B] | IC50 [1]: 0.1 to 1 µM; EC50 [2, 12]: < 5 µM |
| 1 to 10 µM | 1 to 10 µM |  | CCCN=C=NCCC(=O)N(C)[C@H](C(=O)N[C@H]1Cc2cccc(c2)-c2ccc3c(c2)c(c(-c2cnccc2COC)n3CC)CC(C)(C)COC(=O)[C@@H]2CCCN(N2)C1=O)C(C)C [22 A and B] | IC50 [5]: 1 to 10 µM |
| 1 to 10 µM | 1 to 10 µM | > 10 µM | CCn1c(-c2cnccc2COC)c2c3cc(ccc31)-c1cccc(c1)C[C@H](NC(=O)[C@H](C(C)C)N(C)C(=O)CCCN=C=NCCCOC)C(=O)N1CCC[C@H](N1)C(=O)OCC(C)(C)C2 [69 A and B] |  |
|  |  | > 10 µM | CCn1c(-c2cnccc2COC)c2c3cc(ccc31)-c1cccc(c1)C[C@H](NC(=O)[C@H](C(C)C)N(C)C(=O)[C@@H]1CC[C@@H](N=C=Nc3ccc(OC)cc3)C1)C(=O)N1CCC[C@H](N1)C(=O)OCC(C)(C)C2 [70 A and B] | IC50 [7]: 0.1 to 1 µM and > 10 µM; IC50 [8]: > 10 µM; IC50 [9]: > 10 µM; IC50 [10]: > 10 µM |
|  |  | > 10 µM | CCn1c(-c2cnccc2COC)c2c3cc(ccc31)-c1cccc(c1)C[C@H](NC(=O)[C@H](C(C)C)N(C)C(=O)[C@H]1CC[C@H](N=C=Nc3ccc(OC)cc3)C1)C(=O)N1CCC[C@H](N1)C(=O)OCC(C)(C)C2 [71 A and B] | IC50 [7]: 0.1 to 1 µM and > 10 µM; IC50 [8]: > 10 µM; IC50 [9]: > 10 µM; IC50 [5]: > 10 µM; IC50 [11]: > 10 µM; IC50 [10]: > 10 µM |
|  | > 10 µM | > 10 µM | CCn1c(-c2cccnc2COC)c2c3cc(ccc31)-c1cc(O)cc(c1)C[C@H](NC(=O)[C@H](C(C)C)N(C)C(=O)CCNC1=NCCO1)C(=O)N1CCC[C@H](N1)C(=O)OCC(C)(C)C2 [Compound 27] |  |
| > 10 µM | > 10 µM | > 10 µM | CCn1c(-c2cccnc2COC)c2c3cc(ccc31)-c1cc(O)cc(c1)C[C@H](NC(=O)[C@H](C(C)C)N(C)C(=O)CNC1=NCCO1)C(=O)N1CCC[C@H](N1)C(=O)OCC(C)(C)C2 [Compound 28] |  |
| 1 to 10 µM | 0.1 to 1 µM | > 10 µM | CCn1c(-c2cnccc2COC)c2c3cc(ccc31)-c1cccc(c1)C[C@H](NC(=O)[C@H](C(C)C)N(C)C(=O)CCN=C=Nc1ccccc1COC)C(=O)N1CCC[C@H](N1)C(=O)OCC(C)(C)C2 [Compound 63] |  |
| 1 to 10 µM |  | > 10 µM | CCn1c(-c2cnccc2COC)c2c3cc(ccc31)-c1cccc(c1)C[C@H](NC(=O)[C@H](C(C)C)N1CC[C@H](CN=C=Nc3ccc(OC)cc3)C1)C(=O)N1CCC[C@H](N1)C(=O)OCC(C)(C)C2 [Compound 81] |  |
|  |  |  | CCn1c(-c2cccnc2COC)c2c3cc(ccc31)-c1cc(O)cc(c1)C[C@H](NC(=O)[C@H](C(C)C)N(C)C(=O)CCNC(=O)NCCCl)C(=O)N1CCC[C@H](N1)C(=O)OCC(C)(C)C2 [Example 25, (2S)-2-(3-(3-(2-chloroethyl)ureido)-N-methylpropanamido)-N-((6^3S,4S)-1^1-ethyl-2^5-hydroxy-1^2-(2-(methoxymethyl)pyridin-3-yl)-10,10-dimethyl-5,7-dioxo-6^1,6^2,6^3,6^4,6^5,6^6-hexahydro-1^1H-8-oxa-1(5,3)-indola-6(1,3)-pyridazina-2(1,3)-benzenacycloundecaphane-4-yl)-3-methylbutanamide] | IC50 [4, 16]: > 10 µM; IC50 [6]: > 10 µM |
|  |  |  | CCn1c(-c2cc(N3CCN(C)CC3)cnc2[C@H](C)OC)c2c3cc(ccc31)-c1cc(O)cc(c1)C[C@H](NC(=O)[C@H](C1CCCC1)N(C)C(=O)CN(C)C(=O)[C@H]1CN1)C(=O)N1CCC[C@H](N1)C(=O)OCC(C)(C)C2 [Example 209, (2R)—N-(2-(((1S)-1-cyclopentyl-2-(((6^3S,4S)-1^1-ethyl-2^5-hydroxy-1^2-(2-((S)-1-methoxyethyl)-5-(4-methylpiperazin-1-yl)pyridin-3-yl)-10,10-dimethyl-5,7-dioxo-6^1,6^2,6^3,6^4,6^5,6^6-hexahydro-1^1H-8-oxa-1(5,3)-indola-6(1,3)-pyridazina-2(1,3)-benzenacycloundecaphane-4-yl)amino)-2-oxoethyl)(methyl)amino)-2-oxoethyl)-N-methylaziridine-2-carboxamide] | IC50 [4, 16]: < 0.01 µM; EC50 ([2]; ASPC1, read-out: pERK EC50 (AsPC-1 KRAS G12D)): < 5 µM; IC50 ([3]; read-out: AsPC-1 Cell Viability IC50, AsPC-1, K-Ras G12D, 5-day treatment): < 0.01 µM |

| Structure (SMILES) | IC50 [3, 13] | IC50 [4, 14] | IC50 [6, 15] | other results |
| --- | --- | --- | --- | --- |
| CCn1c(-c2cccnc2[C@H](C)OC)c2c3cc(ccc31)-c1csc(n1)C[C@H](NC(=O)[C@H](C(C)C)N(C)C(=O)N1CC(N(C)C(=O)[C@H]3CN3)C1)C(=O)N1CCC[C@H](N1)C(=O)OCC(C)(C)C2 (atropisomer, axis not shown) [Compound 218] | 1 to 10 µM |  |  | IC50 [1]: 0.1 to 1 µM; EC50 [2, 12]: < 5 µM |
| CCn1c(-c2cnccc2COC)c2c3cc(ccc31)-c1cc(O)cc(c1)C[C@H](NC(=O)[C@@H](CCNC(=O)NCCCl)C(C)C)C(=O)N1CCC[C@H](N1)C(=O)OCC(C)(C)C2 [Compound 26] |  |  | > 10 µM | IC50 ([4]; read-out: H358 Cell Viability IC50): 1 to 10 µM |
| CCn1c(-c2cnccc2COC)c2c3cc(ccc31)-c1cc(O)cc(c1)C[C@H](NC(=O)[C@@H](CN(C)C(=O)[C@@H]1CN1)C(C)C)C(=O)N1CCC[C@H](N1)C(=O)OCC(C)(C)C2 [Compound 60] | 1 to 10 µM | 1 to 10 µM | > 10 µM | IC50 [1]: > 10 µM |
| CCn1c(-c2cnccc2COC)c2c3cc(ccc31)-c1cc(O)cc(c1)C[C@H](NC(=O)[C@@H](CN(C)C(=O)[C@H]1CN1)C(C)C)C(=O)N1CCC[C@H](N1)C(=O)OCC(C)(C)C2 [Compound 99] | > 10 µM |  | > 10 µM | IC50 [1]: > 10 µM |
| CCn1c(-c2cccnc2[C@H](C)OC)c2c3cc(ccc31)-c1cc(O)cc(c1)C[C@H](NC(=O)[C@H](C(C)C)N(C)C(=O)C1CC3(C1)CN(C(=O)[C@H]1CN1)C3)C(=O)N1CCC[C@H](N1)C(=O)OCC(C)(C)C2 [Compound 181] | > 10 µM |  |  | IC50 [5]: 0.1 to 1 µM |
| CCn1c(-c2cccnc2[C@H](C)OC)c2c3cc(ccc31)-c1cc(O)cc(c1)C[C@H](NC(=O)[C@H](C1CCCC1)N1CC[C@]3(CCN(C(=O)[C@@H]4N[C@@H]4C4CC4)C3)C1=O)C(=O)N1CCC[C@H](N1)C(=O)OCC(C)(C)C2 [Example 214, (2S)-2-cyclopentyl-2-((S)-7-((2R,3R)-3-cyclopropylaziridine-2-carbonyl)-1-oxo-2,7-diazaspiro[4.4]nonan-2-yl)-N-((6^3S,4S)-1^1-ethyl-2^5-hydroxy-1^2-(2-((S)-1-methoxyethyl)pyridin-3-yl)-10,10-dimethyl-5,7-dioxo-6^1,6^2,6^3,6^4,6^5,6^6-hexahydro-1^1H-8-oxa-1(5,3)-indola-6(1,3)-pyridazina-2(1,3)-benzenacycloundecaphane-4-yl)acetamide] | 0.01 to 0.1 µM | 0.01 to 0.1 µM |  | EC50 [2, 12]: < 5 µM |
